Reference: patent US20190364896A1, “SYNERGISTIC WEED CONTROL FROM APPLICATIONS OF PYRIDINE CARBOXYLIC ACID HERBICIDES AND ALS INHIBITORS” (Dow AgroSciences LLC, priority 2014, published 2019)

Key:
[1] = system: winter rape (Brassica napus, BRSNW); test: Postemergence herbicidal activity, greenhouse trial (visual injury 0-100%); type: in vivo
[2] = system: kochia (Kochia scoparia, KCHSC); test: as above; type: in vivo
In short: (§1)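 Herbicide mixtures (an EC-formulated compound plus a partner herbicide) are sprayed at 187 L/ha on greenhouse plants at the second or third true leaf stage, with rates in g ae/ha for (a) and g ai/ha for (b).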

[3] = system: pigweed (Amaranthus retroflexus, AMARE); test: as above; type: in vivo
In short: as §1

[4] = system: soybean (Glycine max, GLXMA); test: as above; type: in vivo; settings: 100 g ai/ha
Experimental: (§2) Seeds of the desired test plant species were planted in Sun Gro MetroMix® 306 planting mixture, which typically has a pH of 6.0 to 6.8 and an organic matter content of about 30 percent, in plastic pots with a surface area of 103.2 square centimeters (cm^2). […] The plants were grown for 7-36 days (d) in a greenhouse with an approximate 14-hour (h) photoperiod which was maintained at about 23° C. during the day and 22° C. during the night. Nutrients and water were added on a regular basis and supplemental lighting was provided with overhead metal halide 1000-Watt lamps as necessary. The plants were employed for testing when they reached the second or third true leaf stage.
(§3) Weighed amounts of technical material were dissolved in a volume of 97:3 volume per volume (v/v) acetone/dimethyl sulfoxide (DMSO) to stock solutions. […] The concentrated stock solutions were diluted with an aqueous mixture of 1.5% v/v of Agri-dex crop oil concentrate to provide the appropriate application rates. Compound requirements are based upon a 12 milliliter (mL) application volume at a rate of 187 liters per hectare (L/ha). Spray solutions of the experimental compound mixtures were prepared by adding the stock solutions to the appropriate amount of dilution solution to form a 12 mL spray solution in two-way combinations. Formulated compounds were applied to the plant material with an overhead Mandel track sprayer equipped with 8002E nozzles calibrated to deliver 187 L/ha over an application area of 0.503 square meters (m^2) at a spray height of 18 inches (43 centimeters (cm)) above average plant canopy. Control plants were sprayed in the same manner with the solvent blank. Application rates for component (a) are in g ae/ha, and application rates for component (b) are in g ai/ha.
(§4) The treated plants and control plants were placed in a greenhouse as described above and watered by sub-irrigation to prevent wash-off of the test compounds. After 20-22 d, the condition of the test plants as compared with that of the control plants was determined visually and scored on a scale of 0 to 100 percent where 0 corresponds to no injury and 100 corresponds to complete kill. The condition of the test plants was compared with that of the control plants as determined visually and scored on a scale of 0 to 100 percent, where 0 corresponds to no injury and 100 corresponds to complete kill. Colby's equation was used to determine the herbicidal effects expected from the mixtures.
(§5) Compound 1 was formulated as an EC and was combined with imazamox, imazamethabenz, imazapic, imazapyr or imazethapyr. The mixtures were applied to winter wheat (TRZAW) and/or maize (ZEAMX), and the phytotoxicity of the herbicidal compositions was measured. In addition, the efficacy of the herbicidal compositions on blackgrass (Alopecurus myosuroides, ALOMY), wild oat (Avena fatua, AVEFA), winter rape (Brassica napus, BRSNW), spring rape (Brassica napus, BRSNN), turnip (Brassica rapa, BRSRR), thistle (Cirsium arvense, CIRAR), large crabgrass (Digitaria sanguinalis, DIGSA), pigweed (Amaranthus retrollexus, AMARE), common lambsquarters (Chenopodium album L., CHEAL), poinsettia (Euphorbia heterophylla, EPHHL), ivyleaf morning-glory (Ipomoea hederacea, IPOHE), kochia (Kochia scoparia, KCHSC), wild buckwheat (Polygonum convolvulus, POLCO), grain sorghum (Sorghum vulgare, SORVU), chickweed (Stellaria media, STEME), wild pansy (Viola tricolor, VIOTR), sunflower (Helianthus annuus, HELAN), giant foxtail (Setaria faberi, SETFA), soybean (Glycine max, GLXMA), rutabaga (Brassica napus var. napobrassica, BRSNA) and barnyardgrass (Echinochloa crus-galli, ECHCG) was evaluated.

[5] = system: sunflower (Helianthus annuus, HELAN); test: as above; type: in vivo; settings: 100 g ai/ha
[6] = system: chickweed (Stellaria media, STEME); test: as above; type: in vivo
In short: as §1

[7] = system: grain sorghum (Sorghum vulgare, SORVU); test: as above; type: in vivo; settings: 100 g ai/ha
In short: as §1

[8] = system: ivyleaf morning-glory (Ipomoea hederacea, IPOHE); test: as above; type: in vivo
In short: as §1

[9] = system: wild oat (Avena fatua, AVEFA); test: as above; type: in vivo; settings: 100 g ai/ha
In short: as §1

[10] = system: common lambsquarters (Chenopodium album L., CHEAL); test: as above; type: in vivo
In short: as §1

[11] = system: barnyardgrass (Echinochloa crus-galli, ECHCG); test: as above; type: in vivo
In short: as §1

[12] = system: poinsettia (Euphorbia heterophylla, EPHHL); test: as above; type: in vivo
In short: (§6)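 Greenhouse-grown plants at the second to third true leaf stage were sprayed with two-way mixtures in 1.5% v/v Agri-dex crop oil concentrate at 187 L/ha; rates in g ae/ha for component (a) and g ai/ha for component (b). Injury scored visually 0–100% versus solvent-blank controls after 20–22 d, with expected mixture effects from Colby's equation.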

[13] = system: wild buckwheat (Polygonum convolvulus, POLCO); test: as above; type: in vivo; settings: Fallopia convolvulus, post-emergence, 11.2 g ai/ha; read-out: % visual injury Obs
In short: as §1

[14] = system: thistle (Cirsium arvense, CIRAR); test: as above; type: in vivo; settings: Cirsium arvense, post-emergence, read-out: % visual injury Obs
In short: as §1

[15] = system: spring rape (Brassica napus, BRSNN); test: as above; type: in vivo
[16] = system: turnip (Brassica rapa, BRSRR); test: as above; type: in vivo; settings: 11.2 g ai/ha
Experimental: as §2, §3, §4, §5

[17] = system: wild pansy (Viola tricolor, VIOTR); test: as above; type: in vivo; settings: Viola tricolor, post-emergence, VIOTR, read-out: % visual injury Obs
In short: as §1

[18] = system: nutsedge (Cyperus esculentus, CYPES); test: as above; type: in vivo; settings: Cyperus, post-emergence, read-out: % visual injury Obs
In short: as §6

[19] = system: maize (Zea mays, ZEAMX); test: Postemergence crop injury (phytotoxicity), greenhouse trial (visual injury 0-100%)
Experimental: as §2
(§7) Weighed amounts of technical or formulated material (emulsifiable concentrate (EC) or soluble concentrate (SL)) were dissolved in a volume of 97:3 volume per volume (v/v) acetone/dimethyl sulfoxide (DMSO) to stock solutions. […] The concentrated stock solutions were diluted with an aqueous mixture of 1.5% v/v of Agri-dex crop oil concentrate to provide the appropriate application rates. Compound requirements are based upon a 12 milliliter (mL) application volume at a rate of 187 liters per hectare (L/ha). Spray solutions of the experimental compound mixtures were prepared by adding the stock solutions to the appropriate amount of dilution solution to form a 12 mL spray solution in two-way combinations. Formulated compounds were applied to the plant material with an overhead Mandel track sprayer equipped with 8002E nozzles calibrated to deliver 187 L/ha over an application area of 0.503 square meters (m^2) at a spray height of 18 inches (43 centimeters (cm)) above average plant canopy. Control plants were sprayed in the same manner with the solvent blank. Application rates for component (a) are in g ae/ha, and application rates for component (b) are in g ai/ha.
as §4
(§8) Compound 1 was formulated as an EC and was combined with florasulam, cloransulam, diclosulam, flumetsulam, penoxsulam, or pyroxsulam. Compound 2 was formulated as an EC and was combined with florasulam or pyroxsulam. The mixtures were applied to winter wheat (TRZAW), common rice (ORYSA), maize (ZEAMX), and the phytotoxicity of the herbicidal compositions was measured. In addition, the efficacy of the herbicidal compositions on blackgrass (Alopecurus myosuroides, ALOMY), pigweed (Amaranthus retrollexus, AMARE), wild oat (Avena fatua, AVEFA), common lambsquarters (Chenopodium album L., CHEAL), thistle (Cirsium arvense CIRAR), nutsedge (Cyperus esculentus, CYPES), barnyardgrass (Echinochloa crus-galli, ECHCG), poinsettia (Euphorbia heterophylla, EPHHL), ivyleaf morning-glory (Ipomoea hederacea, IPOHE), kochia (Kochia scoparia, KCHSC), wild buckwheat (Polygonum convolvulus, POLCO), grain sorghum (Sorghum vulgare, SORVU), chickweed (Stellaria media, STEME), wild pansy (Viola tricolor, VIOTR), was evaluated.
(§9) Weighed amounts of technical material were dissolved in a volume of 97:3 volume per volume (v/v) acetone/dimethyl sulfoxide (DMSO) to stock solutions. […] The concentrated stock solutions were diluted with an aqueous mixture of 1.5% v/v of Agri-dex crop oil concentrate to provide the appropriate application rates. Compound requirements are based upon a 12 milliliter (mL) application volume at a rate of 187 liters per hectare (L/ha). […]

[20] = system: giant foxtail (Setaria faberi, SETFA); test: Postemergence herbicidal activity, greenhouse trial (visual injury 0-100%); type: in vivo; settings: SETFA; nicosulfuron 17.5 g ai/ha
[21] = system: common rice (Oryza sativa, ORYSA); test: Postemergence crop injury (phytotoxicity), greenhouse trial (visual injury 0-100%)
Experimental: as §2, §7, §4, §8, §9

[22] = system: winter wheat (Triticum aestivum, TRZAW); test: as above
Experimental: as §2, §3, §4
Compound 2 was combined with florasulam and applied to winter wheat (TRZAW) and the phytotoxicity of the herbicidal composition was measured. In addition, the efficacy of the herbicidal composition on poinsettia (Euphorbia heterophylla, EPHHL) and […] (Cyperus esculentus, CYPES) was evaluated.
as §9, with “technical or formulated” for “technical”, “material (emulsifiable concentrate (EC) or soluble concentrate (SL))” for “material”, “(L/ha). Spray solutions of the experimental compound mixtures were prepared by adding the stock solutions to the appropriate amount of dilution solution to form a 12 mL spray solution in two-way combinations.” for “(L/ha).”

For imazamethabenz, the “% visual injury Obs” value ([1]; 100 g ai/ha) was 65%, the “% visual injury Obs” value ([2]; 100 g ai/ha) was 0% and the “% visual injury Obs” value ([3]; 100 g ai/ha) was 0%. The “% visual injury Obs” value [4] was 30%, the “% visual injury Obs” value [5] was 5% and the “% visual injury Obs” value ([6]; 100 g ai/ha) was 10%. For the same compound, the “% visual injury Obs” value [7] was 0%, the “% visual injury Obs” value ([8]; 100 g ai/ha) was 0% and the “% visual injury Obs” value [9] was 20%. The “% visual injury Obs” value ([10]; 100 g ai/ha) was 20%, the “% visual injury Obs” value ([11]; 100 g ai/ha) was 5% and the “% visual injury Obs” value ([12]; 100 g ai/ha) was 50%.
`COCc1cnc(C2=NC(C)(C(C)C)C(=O)N2)c(C(=O)O)c1` (stereo not shown) [Imazamox, imazamox] was tested, and the pest or weed control at 11.2 g/ha [13] was 65%, the pest or weed control at 11.2 g/ha ([14]; 11.2 g ai/ha) was 70% and the “% visual injury Obs” value ([15]; 11.2 g ai/ha) was 75%. For the same compound, the “% visual injury Obs” value [16] was 70%.
In the case of `COc1nc(C)nc(NC(=O)NS(=O)(=O)c2ccccc2Cl)n1` [Chlorsulfuron, chlorsulfuron], the pest or weed control ([17]; chlorsulfuron 2.2 g ai/ha) is reported as 60%, the pest or weed control ([2]; Bassia scoparia, post-emergence, KCHSC, chlorsulfuron 2.2 g ai/ha, read-out: % visual injury Obs) is reported as 50% and the pest or weed control ([14]; CIRAR, chlorsulfuron 2.2 g ai/ha) is reported as 90%. For the same compound, the “% visual injury Obs” value ([15]; BRSNN, chlorsulfuron 2.2 g ai/ha) was 93%, the pest or weed control ([10]; Chenopodium album, post-emergence, CHEAL, chlorsulfuron 2.2 g ai/ha, read-out: % visual injury Obs) was 90% and the pest or weed control ([11]; Echinochloa crus-galli, post-emergence, ECHCG, chlorsulfuron 2.2 g ai/ha, read-out: % visual injury Obs) was 0%. For the same compound, the pest or weed control ([18]; CYPES, chlorsulfuron 2.2 g ai/ha) was 0%.
In the case of `COc1cc(OC)nc(NC(=O)NS(=O)(=O)c2ncccc2C(=O)N(C)C)n1` [Nicosulfuron, nicosulfuron], the “% visual injury Obs” value ([1]; BRSNW, nicosulfuron 17.5 g ai/ha) is reported as 85%, the pest or weed control at 17.5 g/ha ([17]; nicosulfuron 17.5 g ai/ha) is reported as 40% and the pest or weed control at 17.5 g/ha ([2]; Bassia scoparia, post-emergence, KCHSC, nicosulfuron 17.5 g ai/ha, read-out: % visual injury Obs) is reported as 5%. The “% visual injury Obs” value ([19]; ZEAMX, nicosulfuron 17.5 g ai/ha) was 0%, the “% visual injury Obs” value [20] was 80% and the pest or weed control at 17.5 g/ha ([6]; Stellaria media, post-emergence, STEME, nicosulfuron 17.5 g ai/ha, read-out: % visual injury Obs) was 30%. It also gave a pest or weed control at 17.5 g/ha ([8]; Ipomoea hederacea, post-emergence, IPOHE, nicosulfuron 17.5 g ai/ha, read-out: % visual injury Obs) of 30%.
`COc1ncc(F)c2nc(S(=O)(=O)Nc3c(F)cccc3F)nn12` [Florasulam, florasulam] was tested, and the pest or weed control at 2.5 g/ha ([2]; Bassia scoparia, post-emergence, read-out: % visual injury Obs) was 60%, the pest or weed control at 1.25 g/ha ([3]; Amaranthus retroflexus, post-emergence, read-out: % visual injury Obs) was 75% and the “% visual injury Obs” value ([19]; 1.25 g ai/ha) was 0%. For the same compound, the “% visual injury Obs” value ([19]; 2.5 g ai/ha) was 0%, the “% visual injury Obs” value ([21]; 1.25 g ai/ha) was 0% and the “% visual injury Obs” value ([21]; 2.5 g ai/ha) was 0%. For the same compound, the pest or weed control at 1.25 g/ha ([8]; Ipomoea hederacea, post-emergence, read-out: % visual injury Obs) was 98%, the pest or weed control at 1.25 g/ha ([10]; Chenopodium album, post-emergence, read-out: % visual injury Obs) was 0% and the “% visual injury Obs” value ([22]; 1.25 g ai/ha) was 0%. For the same compound, the “% visual injury Obs” value ([22]; 2.5 g ai/ha) was 0%, the pest or weed control at 1.25 g/ha [18] was 15% and the pest or weed control at 2.5 g/ha [18] was 75%. The pest or weed control at 1.25 g/ha ([12]; Euphorbia heterophylla, post-emergence, read-out: % visual injury Obs) was 0%.
